Reference: US20260285850A1, “SUBSTITUTED OXAZOLIDINONES AND IMIDAZOLINONES AS HERBICIDES” (FMC CORPORATION, priority 2023, published 2026)

Tests used:
Format in all cases: in vivo
[1] = tested on: barnyardgrass (Echinochloa crusgalli); assay: Test B flooded paddy test, visual plant response rating 0-100; conditions: 250 g ai/ha, Flood, applied to paddy water, evaluated after 13 days
In short: (§1)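 Each species was raised to two leaves before flooding to a 3 cm depth and dosing the water with compound. Injury was assessed by eye after 13 days under greenhouse conditions.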

[2] = tested on: ducksalad (Heteranthera limosa); assay: as above; conditions: 250 g ai/ha, Flood, applied to paddy water, evaluated after 13 days
In short: as §1

[3] = tested on: sedge, umbrella (small-flower umbrella sedge, Cyperus difformis); assay: as above; conditions: 250 g ai/ha, Flood, applied to paddy water, evaluated after 13 days
In short: as §1

rice (Oryza sativa) = assay: as above; conditions: 250 g ai/ha, Flood, applied to paddy water, evaluated after 13 days
In short: as §1

[4] = tested on: horseweed (Erigeron canadensis); assay: Test A postemergence application, visual injury rating 0-100; conditions: 10 days
In short: (§2)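 Visual injury, scored 0-100 (100 = complete control) against untreated plants, 10 days after greenhouse treatment. Test chemicals in surfactant-containing non-phytotoxic solvent were applied in loam soil and sand, as a preemergence soil spray on seeds or postemergence to plants at the one- to two-leaf stage.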

[5] = tested on: barnyardgrass (Echinochloa crus-galli); assay: as above; conditions: 10 days
In short: as §2

[6] = tested on: ragweed (common ragweed, Ambrosia artemisiifolia); assay: as above; conditions: 10 days
In short: as §2

[7] = tested on: oat, wild (wild oat, Avena fatua); assay: as above; conditions: 10 days
In short: as §2

[8] = tested on: ryegrass, Italian (italian ryegrass, Lolium multiflorum); assay: as above; conditions: 10 days
In short: as §2

[9] = tested on: green foxtail (Setaria viridis); assay: as above; conditions: 10 days
In short: as §2

[10] = tested on: blackgrass (Alopecurus myosuroides); assay: as above; conditions: 10 days
In short: as §2

[11] = tested on: palmer (palmer amaranth, palmer pigweed, Amaranthus palmeri); assay: as above; conditions: 10 days
In short: as §2

[12] = tested on: wheat (Triticum aestivum); assay: as above; conditions: 10 days
In short: as §2

corn (Zea mays) [13] = assay: as above; conditions: 10 days
In short: as §2

soybean (Glycine max) [14] = assay: as above; conditions: 10 days
In short: as §2

kochia (Bassia scoparia) [15] = assay: as above; conditions: 10 days
In short: as §2

[16] = tested on: galium (catchweed bedstraw, Galium aparine); assay: as above; conditions: 10 days
In short: as §2

[17] = tested on: barnyardgrass (Echinochloa crus-galli); assay: Test A preemergence soil spray, visual injury rating 0-100; conditions: 10 days, 0 = no effect, 100 = complete control
In short: as §2

[18] = tested on: ragweed (common ragweed, Ambrosia artemisiifolia); assay: as above; conditions: 10 days, 0 = no effect, 100 = complete control
In short: as §2

[19] = tested on: oat, wild (wild oat, Avena fatua); assay: as above; conditions: 10 days, 0 = no effect, 100 = complete control
In short: as §2

[20] = tested on: ryegrass, Italian (italian ryegrass, Lolium multiflorum); assay: as above; conditions: 10 days, 0 = no effect, 100 = complete control
In short: as §2

[21] = tested on: green foxtail (Setaria viridis); assay: as above; conditions: 10 days, 0 = no effect, 100 = complete control
In short: as §2

[22] = tested on: blackgrass (Alopecurus myosuroides); assay: as above; conditions: 10 days, 0 = no effect, 100 = complete control
In short: as §2

[23] = tested on: palmer (palmer amaranth, palmer pigweed, Amaranthus palmeri); assay: as above; conditions: 10 days, 0 = no effect, 100 = complete control
In short: as §2

[24] = tested on: wheat (Triticum aestivum); assay: as above; conditions: 10 days, 0 = no effect, 100 = complete control
In short: as §2

corn (Zea mays) [25] = assay: as above; conditions: 10 days, 0 = no effect, 100 = complete control
In short: as §2

soybean (Glycine max) [26] = assay: as above; conditions: 10 days, 0 = no effect, 100 = complete control
In short: as §2

kochia (Bassia scoparia) [27] = assay: as above; conditions: 10 days, 0 = no effect, 100 = complete control
In short: as §2

[28] = 31 g ai/ha, postemergence, 0 = no effect, 100 = complete control
[29] = Postemergence, 125 g ai/ha, 0 is no effect, 100 is complete control

CC(C)OC(=O)C1CC(NC(=O)C2(C)CN(c3cc(F)cc(F)c3)C(=O)O2)CO1 (stereo not shown) [Compound 32]
Plant response rating, Barnyardgrass (0 to 100 scale, 0 is no effect and 100 is complete control) [1]: 0 | Plant response rating, Ducksalad (0 to 100 scale, 0 is no effect and 100 is complete control) [2]: 0 | Plant response rating, Sedge, Umbrella (0 to 100 scale, 0 is no effect and 100 is complete control) [3]: 0 | Plant response rating, Rice (0 to 100 scale, 0 is no effect and 100 is complete control) (rice (Oryza sativa)): 0 | Horseweed plant response rating (0-100) [4, 28]: 0 | Horseweed plant response rating (0 to 100 scale) [4, 29]: 0 | Barnyardgrass plant response rating (0-100) [5, 28]: 0 | Barnyardgrass plant response rating (0 to 100 scale) [5, 29]: 90 | Ragweed plant response rating (0-100) [6, 28]: 30 | Ragweed plant response rating (0 to 100 scale) [6, 29]: 50 | Oat, Wild plant response rating (0-100) [7, 28]: 80 | Oat, Wild plant response rating (0 to 100 scale) [7, 29]: 90 | Ryegrass, Italian plant response rating (0-100) [8, 28]: 20 | Ryegrass, Italian plant response rating (0 to 100 scale) [8, 29]: 80 | Foxtail, Green plant response rating (0-100) [9, 28]: 0 | Foxtail, Green plant response rating (0 to 100 scale) [9, 29]: 40 | Blackgrass plant response rating (0-100) [10, 28]: 80 | Blackgrass plant response rating (0 to 100 scale) [10, 29]: 100 | Amaranth, Palmer plant response rating (0-100) [11, 28]: 0 | Amaranth, Palmer / Pigweed, Palmer plant response rating (0 to 100 scale) [11, 29]: 30 | Wheat plant response rating (0-100) [12, 28]: 80 | Wheat plant response rating (0 to 100 scale) [12, 29]: 90 | Corn plant response rating (0-100) (corn (Zea mays) [13]; [28]): 0 | Corn plant response rating (0 to 100 scale) (corn (Zea mays) [13]; [29]): 50 | Soybean plant response rating (0-100) (soybean (Glycine max) [14]; [28]): 20 | Soybean plant response rating (0 to 100 scale) (soybean (Glycine max) [14]; [29]): 60 | Kochia plant response rating (0-100) (kochia (Bassia scoparia) [15]; [28]): 40 | Kochia plant response rating (0 to 100 scale) (kochia (Bassia scoparia) [15]; [29]): 50 | Galium plant response rating (0-100) [16, 28]: 50 | Galium plant response rating (0 to 100 scale) [16, 29]: 80 | Barnyardgrass plant response rating (0-100) ([17]; 31 g ai/ha): 0 | Barnyardgrass plant response rating (0 to 100 scale) ([17]; 125 g ai/ha): 0 | Ragweed plant response rating (0-100) ([18]; 31 g ai/ha): 0 | Ragweed plant response rating (0 to 100 scale) ([18]; 125 g ai/ha): 0 | Oat, Wild plant response rating (0-100) ([19]; 31 g ai/ha): 0 | Oat, Wild plant response rating (0 to 100 scale) ([19]; 125 g ai/ha): 40 | Ryegrass, Italian plant response rating (0-100) ([20]; 31 g ai/ha): 0 | Ryegrass, Italian plant response rating (0 to 100 scale) ([20]; 125 g ai/ha): 80 | Foxtail, Green plant response rating (0-100) ([21]; 31 g ai/ha): 0 | Foxtail, Green plant response rating (0 to 100 scale) ([21]; 125 g ai/ha): 0 | Blackgrass plant response rating (0-100) ([22]; 31 g ai/ha): 0 | Blackgrass plant response rating (0 to 100 scale) ([22]; 125 g ai/ha): 0 | Amaranth, Palmer plant response rating (0-100) ([23]; 31 g ai/ha): 0 | Amaranth, Palmer plant response rating (0 to 100 scale) ([23]; 125 g ai/ha): 0 | Wheat plant response rating (0-100) ([24]; 31 g ai/ha): 0 | Wheat plant response rating (0 to 100 scale) ([24]; 125 g ai/ha): 70 | Corn plant response rating (0-100) (corn (Zea mays) [25]; 31 g ai/ha): 0 | Corn plant response rating (0 to 100 scale) (corn (Zea mays) [25]; 125 g ai/ha): 10 | Soybean plant response rating (0-100) (soybean (Glycine max) [26]; 31 g ai/ha): 20 | Soybean plant response rating (0 to 100 scale) (soybean (Glycine max) [26]; 125 g ai/ha): 0 | Kochia plant response rating (0-100) (kochia (Bassia scoparia) [27]; 31 g ai/ha): 0 | Kochia plant response rating (0 to 100 scale) (kochia (Bassia scoparia) [27]; 125 g ai/ha): 20
